For this assay, the target named is T1, abPPO4 (mushroom tyrosinase) (Agaricus bisporus, UniProt C7FF05).
T1 construct: glutathione-S-transferase (GST) (N, cleaved yes); made in house; host or cells: E. coli BL21(DE3)
T1 sequence (C7FF05 1-379 limits assumed): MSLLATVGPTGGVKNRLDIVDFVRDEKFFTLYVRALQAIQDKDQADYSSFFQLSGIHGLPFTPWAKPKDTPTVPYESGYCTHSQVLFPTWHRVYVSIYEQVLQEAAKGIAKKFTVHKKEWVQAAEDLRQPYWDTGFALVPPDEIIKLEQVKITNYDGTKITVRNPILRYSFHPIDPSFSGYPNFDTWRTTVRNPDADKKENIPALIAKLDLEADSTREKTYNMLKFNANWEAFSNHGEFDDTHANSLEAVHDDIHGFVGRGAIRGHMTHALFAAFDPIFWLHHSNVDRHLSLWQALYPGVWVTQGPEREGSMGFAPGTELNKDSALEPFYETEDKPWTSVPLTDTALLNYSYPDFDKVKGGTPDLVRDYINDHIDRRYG
Description: dopachrome assay, inhibition of abPPO4 diphenolase activity. As to Ki [mM], from Dixon plots: L-DOPA 0.4–1.5 mM. As to Ki [mM], from Lineweaver-Burk slopes: L-DOPA 0.4–1.5 mM. Type of assay: biochemical. The note with it: for α, inhibition parameter, from Lineweaver-Burk intercepts: [b] from Lineweaver-Burk intercepts; for Inhibition type: substrate L-DOPA. The procedure: The detailed methodology applied for kinetic evaluation is presented in the SI.
For the activity plots shown here, the ratios of reaction rates v ([I] = 0] and vapp ([I] = 0.2–14 mM) were determined from UV absorption measurements at 475 nm using the dopachrome assay. Each reaction setup contained a fixed amount of enzyme (1 µg abPPO4) in 1 mL in a plastic cuvette and the reaction buffer was 50 mM Na-citrate pH 6.8. POT stock solutions were prepared in 20 mM concentration in reaction buffer and adjusted for pH 6.8 with NaOH, if necessary. The reaction rates were extracted from the obtained absorption curves as the slope of linear fits of the steepest curve sections close to the start of the reaction over a time-range of 30 s and were determined in triplicates. The relative enzymatic activity dependent on the inhibitor concentration was fitted to a suitable hyperbolic expression (see SI for details). […] The dopachrome assay was performed exactly as described in section 3.1.1. This time, the observed reaction velocities vapp (in µmol/min) were calculated from the extracted reaction rates (in 1/s) using the extinction coefficient of dopachrome ε = 3700 M^−1 cm^−1 [62]. The so obtained data was plotted according to Lineweaver-Burk, and the slopes and ordinate intercepts of these graphs were used to extract inhibition parameters.
(The kinetic models with according mathematical expressions applied in this study are based on Copeland’s guide for enzyme kinetics[28].)
The classical Michaelis-Menten equation[28] relates the velocity v of an enzymatic reaction to the applied substrate concentration [S]:
In this equation, the Michaelis constant KM represents the substrate concentration effecting the half-maximum reaction rate vmax.
For the reported inhibition studies, we chose an expanded version of this equation (1) which accounts for all possible inhibition mechanisms and combinations thereof[28]. In general, both […]
ݒ௠௔௫,௔௣௣ = ௩೘ೌೣଵା [಺] (2)
Herein, [I] refers to the inhibitor concentration, Ki is the inhibition constant measuring the […]
The three ideal inhibition types are reflected by three limiting conditions for α:
(A) 0 < α <<1: uncompetitive inhibition
(B) α = 1: non-competitive inhibition
(C) α >> 1: competitive inhibition
Therefore, values of α < 1 often correspond to mixed-type inhibition with contributions from uncompetitive and non-competitive inhibition modes.
Insertion of expressions (2) and (3) in equation (1) leads to the final mixed-type inhibition […]
The relative enzymatic activity upon inhibition can be expressed as the ratio of the observed reaction velocity v app to the non - inhibited reaction performance v through dividing equation […]
This corresponds to a normalization of the reaction rates with respect to the non - inhibited rate. As w e were interested in the dependence of the reaction velocity on the inhibitor concentration , the substrate concentration was fixed to 1 mM L - DOPA for all activity plots.
This led to a further simplification of equation ( 1 ) : […]
Equation (6) was used as the final curve fit expression for kinetic evaluation of those POM […]
K M was set to 26.1 mM as reported for ab PPO4 by
3.2 Determination of inhibition type
3.2. 1 Kinetic evaluation using Lineweaver - Burk plots […]
linear Lineweaver - Burk [ 29 ] extrapolations. The double - reciprocal plots of 1/ v app against 1/[S] yielded straight li nes that were fitted accordingly to the corresponding ly rearranged form of […]
For simplicity, the terms for the slope m and the ordinate shift t are co mbine d in constants in […]

The mark [1] stands for this setting: [a] from activity plot, 1 mM L-DOPA, 50 mM Na-citrate pH 6.8, 0–14 mM POT, read-out: Ki [mM], from activity plot.
Setting [2] is: [a] from activity plot, 1 mM L-DOPA, pH 6.8.
The mark [3] stands for this setting: [b] from Lineweaver-Burk slopes, L-DOPA 0.4–[…], pH 6.8, read-out: Ki [mM], from Lineweaver-Burk slopes.
[4] abbreviates: [c] from Dixon plots, average intersection, L-DOPA 0.4–[…], pH 6.8, read-out: Ki [mM], from Dixon plots.

Like-named read-outs stand apart in the source and are kept apart here.

The term Ki denotes a measure of affinity in units of concentration, obtained from inhibition or displacement. As to `[Na+].[Na+].[O]=[W](=[O])([O-])[O-]` [[WO4]^2−, Na2WO4, reference compound], the Ki by setting is: under setting [1], 20 mM; under setting [3], 19 mM; under setting [4], 24.8 mM. Under setting [2], the “α, inhibition parameter, from activity plot” value came to 0.14. The “α, inhibition parameter, from Lineweaver-Burk intercepts” value (pH 6.8) was found to be 0.03. Besides, the Inhibition type result (pH 6.8) is on record as “Mixed-type”.

On to K4[SiW12O40] [[SiW12]^4−], for which the inhibition constant (Ki) turned out to be 4.7 mM under setting [1], 3.8 mM under setting [3] and 5.6 mM under setting [4]. Under setting [2], the “α, inhibition parameter, from activity plot” value came out at 0.11. Besides, the “α, inhibition parameter, from Lineweaver-Burk intercepts” value (pH 6.8) amounted to 0.32. Also, the “inhibitory effect on abPPO4 activity (in words)” value (activity plots, 1 mM L-DOPA, pH 6.8) is listed as “most potent inhibitory effect”. The Inhibition type entry (pH 6.8) is given as “Mixed-type”.

The record behind these values is paper PMC6435698, “Keggin-type polyoxotungstates as mushroom tyrosinase inhibitors - A speciation study” (Scientific Reports, 2019).
